Results reported in patent publication US9018175B2 (Takeda GmbH, priority 2009, dated 2015).

Legend:
PDE4B1 = target: T1, PDE4B1 (Homo sapiens, UniProt Q07343); test: Inhibition of PDE4B1 activity (SPA, [3H]cAMP); type: biochemical; settings: recombinant PDE4B1 expressed in SF21 cells; 0.5 pM [sic] cAMP; values given as bins; read-out: PDE4B1 inhibitory values measured as −logIC50 (converted)
T1 construct: made in house; host or cells: SF21 insect cells (baculovirus; pCR-Bac vector)
Method: The PDE4B1 (GB no. L20966) was a gift of Prof. M. Conti (Stanford University, USA). It was amplified from the original plasmid (pCMV5) via PCR with primers Rb18 (5′-[…]-3′) and Rb10 (5′-[…]-3′) and cloned into the pCR-Bac vector (Invitrogen, Groningen, NL).
The recombinant baculovirus was prepared by means of homologous recombination in SF9 insect cells. The expression plasmids were cotransfected with Baculo-Gold DNA (Pharmingen, Hamburg) using a standard protocol (Pharmingen, Hamburg). Wt virus-free recombinant virus supernatants were selected using plaque assay methods. After that, high-titre virus supernatants were prepared by amplifying 3 times. PDE4B1 was expressed in SF21 cells by infecting 2×10^6 cells/ml with an MOI (multiplicity of infection) between 1 and 10 in the serum-free medium Insect Express Sf9-S2 (PAA, Pasching, Austria). The cells were cultured at 28° C. for 48-72 hours, after which they were pelleted for 5-10 min at 1000×g and 4° C.
The SF21 insect cells were resuspended, at a concentration of approx. 10^7 cells/ml, in ice-cold (4° C.) homogenization buffer (20 mM Tris, pH 8.2, containing the following additions: 140 mM NaCl, 3.8 mM KCl, 1 mM EGTA, 1 mM MgCl2, 10 mM e-mercaptoethanol, 2 mM benzamidine, 0.4 mM Pefablock, 10 pM leupeptin, 10 pM pepstatin A, 5 pM trypsin inhibitor) and disrupted by ultrasonication. The homogenate was then centrifuged for 10 min at 1000, g and the supernatant was stored at −80° C. until subsequent use (see below). The protein content was determined by the Bradford method (BioRad, Munich) using BSA as the standard.
PDEB1 activities were measured in a 96-well platform using SPA (scintillation proximity assay) yttrium silicate beads (RPNQ1050 from GE Healthcare). In a first step the PDE activity operates hydrolysis of either [^3H] cAMP (substrate) into [^3H] 5′AMP. In a second step substrate and product are distinguished following addition of SPA yttrium silicate beads. Indeed, in the presence of zinc sulphate the linear [^3H] […] Close proximity of bound [^3H] […] The test volume is 100 pl and contains 20 mM Tris buffer (pH 7.4), 0.1 mg/ml of BSA, 5 mM Mg^2+, […] (including about 50,000 cpm of [3H]cAMP), 1 pl of the respective substance dilution in DMSO and sufficient recombinant PDE (1000, g supernatant, see above) to ensure that 10-20% of the cAMP is converted under the said experimental conditions. […] After a preincubation of 5 min at 37° C., the reaction is started by adding the substrate (cAMP) and the assays are incubated for a further 15 min; after that, they are stopped by adding SPA beads (50 pl). In accordance with the manufacturer's instructions, the SPA beads had previously been resuspended in water, but were then diluted 1:3 (v/v) in water; the diluted solution also contains 3 mM IBMX to ensure a complete PDE activity stop. After the beads have been sedimented (>30 min), the MTP's are analyzed in commercially available luminescence detection devices. The corresponding IC50 values of the compounds for the inhibition of PDE4B1 activity are determined from the concentration-effect curves by means of non-linear regression.

human PDE5 = target: T2, human PDE5 (Homo sapiens, UniProt O76074); test: Inhibition of PDE5 activity (SPA, [3H]cGMP, platelet lysate); type: biochemical; settings: PDE5 from human platelet lysate; values given as bins; read-out: PDE5A inhibitory values measured as −logIC50 (converted)
T2 construct: from tissue; host or cells: human platelets from fresh donor blood (10,000 g supernatant of sonicated platelets)
Method: As a source for human PDE5, platelets are used. For that purpose, 150 ml fresh blood from human donors anticoagulated with citrate [final concentration 0.3% (w/v)] is centrifuged at 200 g for 10 min to obtain the so-called platelet-rich-plasma (PRP) as a supernatant. 1/10 volume of ACD solution (85 mM Na3-citrate, 111 mM D-glucose, 71 mM citric acid, pH 4.4) is added to 9/10 volume of PRP. After centrifugation (1,400 g, 10 min) the cell pellet is resuspended in 3 ml homogenization buffer (NaCl 140 mM, KCl 3.8 mM, EGTA (ethylene glycol tetraacetic acid) 1 mM, MgCl2 1 mM, Tris-HCl 20 mM, beta-mercaptoethanol 1 mM, pH 8.2) plus protease-inhibitor mix giving rise to the final concentrations of 0.5 mM Pefablock (Roche), 10 μM Leupeptin, 5 μM Trypsininhibitor, 2 mM Benzamidin and 10 μM Pepstatin A. The suspension is sonified and thereafter centrifuged for 15 min at 10,000 g. The resulting supernatant (platelet lysate) is used for enzymatic testings.
PDE5 activities were measured in a 96-well platform using SPA (scintillation proximity assay) yttrium silicate beads (RPNQ1050 from GE Healthcare). In a first step the PDE activity operates hydrolysis of either [^3H] cGMP (substrate) into [^3H] 5′GMP. In a second step substrate and product are distinguished following addition of SPA yttrium silicate beads. Indeed, in the presence of zinc sulphate the linear [^3H] […] Close proximity of bound [^3H] […] The test volume is 100 pl and contains 20 mM Tris buffer (pH 7.4), 0.1 mg of BSA (bovine serum albumin)/ml, 5 mM Mg^2+, 1 μM motapizone (PDE3 Inhibitor), 10 nM PDE2 inhibitor 2-(3,4-dimethoxybenzyl)-7-[(1R,2R)-2-hydroxy-1-(2-phenylethyl)propyl]-5-methylimidazo[5,1-f][1,2,4]triazin-4(3H)-one, […] (cyclic guanosine monophosphate) (including about 50,000 cpm of [3H]cGMP as a tracer), 1 pl of the respective compound dilution in dimethylsulfoxide (DMSO) and sufficient PDE5-containing platelet lysat (10,000, g supernatant, see above) to ensure that 10-20 wt % of the cGMP is converted under the said experimental conditions. […] After a preincubation of 5 min at 37° C., the reaction is started by adding the substrate (cGMP) and the assay is incubated for a further 15 min; after that, it is stopped by adding SPA beads (50 pl). In accordance with the manufacturer's instructions, the SPA beads had previously been resuspended in water, but are then diluted 1:3 (v/v) in water; the diluted solution also contains 3 mM […]3-isobutyl-1-methylxanthine (IBMX) to ensure a complete PDE activity stop. After the beads have been sedimented (>30 min), the MTP's are analyzed in commercially available luminescence detection devices. The corresponding IC50 values of the compounds for the inhibition of PDE activity are determined from the concentration-effect curves by means of non-linear regression.

T1 sequence (Q07343 whole entry): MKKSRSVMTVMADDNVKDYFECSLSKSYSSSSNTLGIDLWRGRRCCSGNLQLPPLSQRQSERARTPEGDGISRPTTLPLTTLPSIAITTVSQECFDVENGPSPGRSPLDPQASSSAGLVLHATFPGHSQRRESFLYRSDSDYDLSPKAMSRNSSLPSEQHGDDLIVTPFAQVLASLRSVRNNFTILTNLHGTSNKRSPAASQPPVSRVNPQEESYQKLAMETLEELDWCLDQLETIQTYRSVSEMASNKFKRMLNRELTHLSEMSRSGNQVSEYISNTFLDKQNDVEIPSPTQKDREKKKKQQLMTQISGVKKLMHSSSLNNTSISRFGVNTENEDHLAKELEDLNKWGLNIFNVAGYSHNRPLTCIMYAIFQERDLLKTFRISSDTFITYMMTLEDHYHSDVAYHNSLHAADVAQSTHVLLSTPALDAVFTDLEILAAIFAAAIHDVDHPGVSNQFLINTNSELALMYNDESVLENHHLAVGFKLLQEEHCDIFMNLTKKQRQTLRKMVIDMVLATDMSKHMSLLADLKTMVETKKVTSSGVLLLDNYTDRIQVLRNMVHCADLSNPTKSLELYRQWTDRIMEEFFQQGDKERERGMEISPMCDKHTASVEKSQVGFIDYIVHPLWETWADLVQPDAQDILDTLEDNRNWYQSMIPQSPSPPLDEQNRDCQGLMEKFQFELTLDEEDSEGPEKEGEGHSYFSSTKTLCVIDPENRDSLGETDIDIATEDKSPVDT

IC50 (PDE4B1) [µM]	IC50 (human PDE5) [µM]	SMILES
0.001 to 0.01	< 0.01	CCOc1cc2c(cc1OC)C(c1cccc(C(=O)N3CCC(n4c(=O)c5sc(-c6cc(F)ccc6OC)cc5n(Cc5nnn(CC)n5)c4=O)CC3)c1)=N[C@@H]1CCSC[C@H]21 [Example 35, 3-[1-({3-[(4aR,10bR)-9-ethoxy-8-methoxy-3,4,4a,10b-tetrahydro-1H-thiopyrano[4,3-c]isoquinolin-6-yl]phenyl}carbonyl)piperidin-4-yl]-1-[(2-ethyl-2H-tetrazol-5-yl)methyl]-6-(5-fluoro-2-methoxyphenyl)thieno[3,2-d]pyrimidine-2,4(1H,3H)-dione]
> 0.01	< 0.01	CCOc1cc2c(cc1OC)C(c1cccc(C(=O)N3CCC(n4c(=O)c5sc(-c6ccc(F)cc6)cc5n(Cc5nnn(CC)n5)c4=O)CC3)c1)=N[C@@H]1CCSC[C@H]21 [Example 41, 3-[1-({3-[(4aR,10bR)-9-ethoxy-8-methoxy-3,4,4a,10b-tetrahydro-1H-thiopyrano[4,3-c]isoquinolin-6-yl]phenyl}carbonyl)piperidin-4-yl]-1-[(2-ethyl-2H-tetrazol-5-yl)methyl]-6-(4-fluorophenyl)thieno[3,2-d]pyrimidine-2,4(1H,3H)-dione]
< 0.001	< 0.01	CCOc1cc2c(cc1OC)C(c1ccc(C(=O)N3CCC(n4c(=O)c5sc(-c6ccccc6)cc5n(Cc5nnn(COC)n5)c4=O)CC3)cc1)=N[C@@H]1CCSC[C@H]21 [Example 28, 3-[1-({4-[(4aR,10bR)-9-ethoxy-8-methoxy-3,4,4a,10b-tetrahydro-1H-thiopyrano[4,3-c]isoquinolin-6-yl]phenyl}carbonyl)piperidin-4-yl]-1-{[2-(methoxymethyl)-2H-tetrazol-5-yl]methyl}-6-phenylthieno[3,2-d]pyrimidine-2,4(1H,3H)-dione]
< 0.001	0.01 to 0.1	CCOc1cc2c(cc1OC)C(c1ccc(C(=O)N3CCC(n4c(=O)c5sc(-c6ccccc6)cc5n(Cc5nc(CCCOC)no5)c4=O)CC3)cc1)=N[C@@H]1CCSC[C@H]21 [Example 50, 3-[1-({4-[(4aR,10bR)-9-ethoxy-8-methoxy-3,4,4a,10b-tetrahydro-1H-thiopyrano[4,3-c]isoquinolin-6-yl]phenyl}carbonyl)piperidin-4-yl]-1-{[3-(3-methoxypropyl)-1,2,4-oxadiazol-5-yl]methyl}-6-phenylthieno[3,2-d]pyrimidine-2,4(1H,3H)-dione]
> 0.01	< 0.01	CCOc1cc2c(cc1OC)C(c1ccc(C(=O)N3CCC(n4c(=O)c5sc(-c6ccccc6)cc5n(Cc5nnn(CC)n5)c4=O)CC3)cc1)=N[C@@H]1CCSC[C@H]21 [Example 14, 3-[1-({4-[(4aR,10bR)-9-ethoxy-8-methoxy-3,4,4a,10b-tetrahydro-1H-thiopyrano[4,3-c]isoquinolin-6-yl]phenyl}carbonyl)piperidin-4-yl]-1-[(2-ethyl-2H-tetrazol-5-yl)methyl]-6-phenylthieno[3,2-d]pyrimidine-2,4(1H,3H)-dione]
> 0.01	< 0.01	CCOc1cc2c(cc1OC)C(c1cccc(C(=O)N3CCC(n4c(=O)c5sc(-c6ccc7c(c6)OCO7)cc5n(Cc5nnn(CC)n5)c4=O)CC3)c1)=N[C@@H]1CCSC[C@H]21 [Example 31, 6-(1,3-benzodioxol-5-yl)-3-[1-({3-[(4aR,10bR)-9-ethoxy-8-methoxy-3,4,4a,10b-tetrahydro-1H-thiopyrano[4,3-c]isoquinolin-6-yl]phenyl}carbonyl)piperidin-4-yl]-1-[(2-ethyl-2H-tetrazol-5-yl)methyl]thieno[3,2-d]pyrimidine-2,4(1H,3H)-dione]
> 0.01	0.01 to 0.1	CCOc1cc2c(cc1OC)C(c1ccc(C(=O)N3CCC(n4c(=O)c5sc(-c6cc(F)ccc6OC)cc5n(Cc5nnn(CC)n5)c4=O)CC3)cc1)=N[C@@H]1CCSC[C@H]21 [Example 34, 3-[1-({4-[(4aR,10bR)-9-ethoxy-8-methoxy-3,4,4a,10b-tetrahydro-1H-thiopyrano[4,3-c]isoquinolin-6-yl]phenyl}carbonyl)piperidin-4-yl]-1-[(2-ethyl-2H-tetrazol-5-yl)methyl]-6-(5-fluoro-2-methoxyphenyl)thieno[3,2-d]pyrimidine-2,4(1H,3H)-dione]
0.001 to 0.01	> 0.1	CCOc1cc2c(cc1OC)C(c1ccc(C(=O)N3CCC(n4c(=O)c5sc(-c6ccccc6)cc5n(Cc5sccc5C)c4=O)CC3)cc1)=N[C@@H]1CCSC[C@H]21 [Example 56, 3-[1-({4-[(4aR,10bR)-9-ethoxy-8-methoxy-3,4,4a,10b-tetrahydro-1H-thiopyrano[4,3-c]isoquinolin-6-yl]phenyl}carbonyl)piperidin-4-yl]-1-[(3-methylthiophen-2-yl)methyl]-6-phenylthieno[3,2-d]pyrimidine-2,4(1H,3H)-dione]
0.001 to 0.01	0.01 to 0.1	CCOc1cc2c(cc1OC)C(c1ccc(C(=O)N3CCC(n4c(=O)c5sc(-c6ccccc6)cc5n(Cc5ccc(CC)s5)c4=O)CC3)cc1)=N[C@@H]1CCSC[C@H]21 [Example 55, 3-[1-({4-[(4aR,10bR)-9-ethoxy-8-methoxy-3,4,4a,10b-tetrahydro-1H-thiopyrano[4,3-c]isoquinolin-6-yl]phenyl}carbonyl)piperidin-4-yl]-1-[(5-ethylthiophen-2-yl)methyl]-6-phenylthieno[3,2-d]pyrimidine-2,4(1H,3H)-dione]
